Data on one molecule can be found in ChEMBL document CHEMBL5120857, “Rational design, synthesis and biological evaluation of dual PARP-1/2 and TNKS1/2 inhibitors for cancer therapy” (Eur J Med Chem, 2022).

The inhibition is the drop in the measured response relative to a control, in per cent. Usually IC50 stands for the concentration needed to halve the response being measured. Read a high IC50 as weaker potency in that assay.

Data set [1] deals with HCT-116. Kind of data set: Antitumor activity against human HCT-116 cells xenografted in BALB/c nude mouse assessed as tumor growth inhibition at 100 mg/kg, ip administered once daily for 28 days. It is filed as functional. The conditions noted are these: HCT-116, 672 h, time 28 day, read-out: TGI. Background: Xenograft models place foreign cells or tissue in a host animal.

Data set [2] is described as follows: Toxicity in BALB/c nude mouse xenografted with human HCT116 cells assessed as side effects at 25 to 100 mg/kg, ip administered once daily for 28 days. Type of data set: organism-based, HCT-116. The conditions noted are these: in vivo, 672 h, dose 25-100 mg/kg, time 28 day.
Data set [3] relates to HCT-116. Kind of data set: Induction of cell cycle arrest in human HCT-116 cells assessed as S phase cells at 1 uM incubated for 3 days by propidium iodide staining based flow cytometry (reference value: 11.26 %). Type of data set: functional. The following applies: time 3 day. In general terms: Flow cytometry measures light scatter and fluorescence of single cells or particles in a stream.

Data set [4] addresses T1, Poly [ADP-ribose] polymerase tankyrase-1 (Homo sapiens) (UniProt O95271).
T1 sequence (whole entry): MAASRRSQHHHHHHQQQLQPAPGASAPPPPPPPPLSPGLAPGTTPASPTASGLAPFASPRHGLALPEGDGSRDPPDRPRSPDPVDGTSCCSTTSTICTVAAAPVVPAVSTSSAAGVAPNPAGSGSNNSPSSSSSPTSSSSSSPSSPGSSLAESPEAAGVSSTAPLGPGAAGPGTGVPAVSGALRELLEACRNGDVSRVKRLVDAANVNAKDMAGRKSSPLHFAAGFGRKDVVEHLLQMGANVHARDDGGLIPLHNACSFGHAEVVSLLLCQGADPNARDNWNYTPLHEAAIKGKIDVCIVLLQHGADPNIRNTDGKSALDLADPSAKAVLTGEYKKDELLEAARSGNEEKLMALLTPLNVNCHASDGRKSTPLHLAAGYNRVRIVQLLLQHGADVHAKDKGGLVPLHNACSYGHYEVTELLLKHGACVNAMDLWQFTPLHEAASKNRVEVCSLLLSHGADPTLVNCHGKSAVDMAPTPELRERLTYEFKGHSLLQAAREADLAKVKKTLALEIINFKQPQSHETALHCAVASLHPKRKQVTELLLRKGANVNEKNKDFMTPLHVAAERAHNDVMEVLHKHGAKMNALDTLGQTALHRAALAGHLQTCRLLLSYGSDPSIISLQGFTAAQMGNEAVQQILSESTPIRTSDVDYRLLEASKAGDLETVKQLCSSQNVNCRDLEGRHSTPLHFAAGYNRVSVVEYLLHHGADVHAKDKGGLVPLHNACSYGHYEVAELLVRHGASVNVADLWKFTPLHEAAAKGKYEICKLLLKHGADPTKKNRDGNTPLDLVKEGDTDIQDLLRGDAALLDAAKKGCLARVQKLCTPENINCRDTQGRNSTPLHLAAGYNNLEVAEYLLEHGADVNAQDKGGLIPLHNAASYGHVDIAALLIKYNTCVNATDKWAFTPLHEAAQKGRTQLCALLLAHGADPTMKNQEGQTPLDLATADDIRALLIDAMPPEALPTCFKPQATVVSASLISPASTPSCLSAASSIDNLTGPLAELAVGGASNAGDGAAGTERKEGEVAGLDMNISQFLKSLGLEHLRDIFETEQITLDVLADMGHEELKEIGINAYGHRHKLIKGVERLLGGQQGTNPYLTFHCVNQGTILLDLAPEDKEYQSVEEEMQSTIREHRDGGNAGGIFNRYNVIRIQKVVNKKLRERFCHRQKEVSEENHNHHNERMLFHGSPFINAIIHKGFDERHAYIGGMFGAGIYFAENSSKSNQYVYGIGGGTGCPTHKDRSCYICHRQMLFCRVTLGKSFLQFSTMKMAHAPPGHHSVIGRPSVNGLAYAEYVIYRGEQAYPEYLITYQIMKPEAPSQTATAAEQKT
The following applies: dose 10.0 nM, time 1.0 hrs.

The target of data set [5] is Protein mono-ADP-ribosyltransferase PARP14 (Homo sapiens, UniProt Q460N5). Nature of the data set: Inhibition of PARP-14 (unknown origin).
Data set [6] deals with HCT-116. Nature of the data set: Inhibition of Wnt/beta-Catenin signaling in human HCT-116 cells assessed as increase in axin2 levels at 10 uM by Western blot analysis. Type of data set: cell-based. On the technique in general: In western blotting, separated proteins are transferred to a membrane and probed.
Data set [7] deals with HCT-116. Kind of data set: Induction of cell cycle arrest in human HCT-116 cells assessed as G0/G1 phase cells at 5 uM incubated for 3 days by propidium iodide staining based flow cytometry (reference value: 68.35 %). It is filed as functional. The following applies: time 3 day.
For data set [8], the system named is HCT-116. Nature of the data set: Induction of cell cycle arrest in human HCT-116 cells assessed as G2/M phase cells at 1 uM incubated for 3 days by propidium iodide staining based flow cytometry (reference value: 68.35 %). Type of data set: functional. The conditions noted are these: time 3 day.
Data set [9] relates to HCT-116. Kind of data set: Induction of DNA damage in human HCT-116 cells assessed as increase in nuclear gammaH2AX foci incubated for 72 hrs by DAPI staining based immunofluorescence analysis. It is filed as functional, cell-based. The following applies: dose 1.0 µM.
Data set [10] is described as follows: Toxicity in […] assessed as morphological changes in jejunum at 500 mg/kg, ip by H&E staining based histopathological analysis. Type of data set: organism-based. The conditions noted are these: in vivo.
Data set [11] deals with T2, Protein mono-ADP-ribosyltransferase TIPARP (Homo sapiens, UniProt Q7Z3E1).
T2 sequence (Q7Z3E1 whole entry): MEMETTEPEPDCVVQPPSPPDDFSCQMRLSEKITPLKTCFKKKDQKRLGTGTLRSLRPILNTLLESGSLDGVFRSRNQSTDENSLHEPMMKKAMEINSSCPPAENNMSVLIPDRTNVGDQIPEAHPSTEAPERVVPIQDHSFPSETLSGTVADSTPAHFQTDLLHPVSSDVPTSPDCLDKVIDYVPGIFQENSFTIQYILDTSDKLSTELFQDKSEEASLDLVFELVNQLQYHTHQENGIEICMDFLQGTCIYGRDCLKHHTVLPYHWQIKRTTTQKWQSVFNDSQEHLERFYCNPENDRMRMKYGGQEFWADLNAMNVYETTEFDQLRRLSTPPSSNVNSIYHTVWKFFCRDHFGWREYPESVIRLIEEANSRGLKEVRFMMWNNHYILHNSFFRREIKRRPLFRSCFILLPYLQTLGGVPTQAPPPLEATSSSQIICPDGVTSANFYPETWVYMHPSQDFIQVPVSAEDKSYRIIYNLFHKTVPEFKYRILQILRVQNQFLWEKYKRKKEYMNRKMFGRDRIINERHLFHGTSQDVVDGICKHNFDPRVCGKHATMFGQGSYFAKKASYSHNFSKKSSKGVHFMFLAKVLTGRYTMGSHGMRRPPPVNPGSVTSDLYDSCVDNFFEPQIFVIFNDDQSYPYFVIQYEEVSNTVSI
Kind of data set: Inhibition of PARP-7 (unknown origin).

Active and inactive are the calls of the source. The calls are words filed in the database; no cut-off is given here.

Chain of Protein mono-ADP-ribosyltransferase PARP14 (Q460N5 whole entry): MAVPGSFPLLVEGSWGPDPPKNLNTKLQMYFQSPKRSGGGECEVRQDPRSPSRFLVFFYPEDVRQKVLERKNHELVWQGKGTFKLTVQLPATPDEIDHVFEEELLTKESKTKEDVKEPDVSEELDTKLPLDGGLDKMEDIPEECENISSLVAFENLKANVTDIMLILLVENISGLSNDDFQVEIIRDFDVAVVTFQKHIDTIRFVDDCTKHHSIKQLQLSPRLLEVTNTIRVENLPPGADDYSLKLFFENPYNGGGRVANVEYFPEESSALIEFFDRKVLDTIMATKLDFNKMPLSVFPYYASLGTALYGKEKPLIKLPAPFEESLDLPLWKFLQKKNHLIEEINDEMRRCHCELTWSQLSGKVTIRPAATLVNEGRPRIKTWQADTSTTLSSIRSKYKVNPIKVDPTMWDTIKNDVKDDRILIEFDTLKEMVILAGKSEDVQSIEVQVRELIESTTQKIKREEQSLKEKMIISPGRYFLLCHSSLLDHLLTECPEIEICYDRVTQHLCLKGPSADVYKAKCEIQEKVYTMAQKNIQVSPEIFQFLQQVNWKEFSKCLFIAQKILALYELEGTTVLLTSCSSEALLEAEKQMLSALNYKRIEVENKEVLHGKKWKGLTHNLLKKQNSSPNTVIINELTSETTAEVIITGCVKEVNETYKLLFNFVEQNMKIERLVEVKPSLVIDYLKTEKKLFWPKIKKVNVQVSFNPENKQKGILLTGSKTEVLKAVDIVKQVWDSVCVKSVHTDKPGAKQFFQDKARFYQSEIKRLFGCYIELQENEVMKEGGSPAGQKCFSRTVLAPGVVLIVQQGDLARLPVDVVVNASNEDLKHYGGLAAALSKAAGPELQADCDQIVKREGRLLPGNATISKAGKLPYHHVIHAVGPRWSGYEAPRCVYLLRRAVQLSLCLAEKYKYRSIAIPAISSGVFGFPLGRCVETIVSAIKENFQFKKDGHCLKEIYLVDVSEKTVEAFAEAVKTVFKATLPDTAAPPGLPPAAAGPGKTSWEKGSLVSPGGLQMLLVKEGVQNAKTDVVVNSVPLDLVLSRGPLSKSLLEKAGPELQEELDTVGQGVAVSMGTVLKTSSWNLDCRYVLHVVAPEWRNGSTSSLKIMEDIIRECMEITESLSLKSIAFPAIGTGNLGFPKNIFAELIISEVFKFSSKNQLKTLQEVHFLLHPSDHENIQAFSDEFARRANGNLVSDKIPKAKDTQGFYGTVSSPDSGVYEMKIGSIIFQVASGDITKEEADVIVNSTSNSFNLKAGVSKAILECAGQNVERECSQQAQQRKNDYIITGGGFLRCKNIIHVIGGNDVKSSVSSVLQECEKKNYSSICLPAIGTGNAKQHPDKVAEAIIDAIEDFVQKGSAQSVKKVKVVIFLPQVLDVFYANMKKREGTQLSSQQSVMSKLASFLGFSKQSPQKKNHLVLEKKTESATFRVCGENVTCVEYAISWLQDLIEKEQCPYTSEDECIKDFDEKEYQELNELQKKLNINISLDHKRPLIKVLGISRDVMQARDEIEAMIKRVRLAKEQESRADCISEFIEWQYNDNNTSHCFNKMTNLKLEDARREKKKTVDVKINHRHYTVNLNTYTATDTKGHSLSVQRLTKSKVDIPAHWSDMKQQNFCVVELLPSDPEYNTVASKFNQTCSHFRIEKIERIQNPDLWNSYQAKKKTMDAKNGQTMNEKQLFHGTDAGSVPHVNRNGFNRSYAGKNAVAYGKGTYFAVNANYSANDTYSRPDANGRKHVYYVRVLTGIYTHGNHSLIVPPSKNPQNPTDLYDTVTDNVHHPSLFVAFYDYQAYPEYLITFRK

In the case of `COc1ccc(NC(=O)c2ccc(NC(=O)N3CCN(C(=O)c4cc(Cc5n[nH]c(=O)c6ccccc56)ccc4F)CC3)cc2)cc1`, the inhibition in vivo at 100 mg/kg in [1] came out at 51.7%. The Activity result in data set [2] is “Non-Toxic”; in [3], 9.31%; in [7], 41.21%; in data set [8] it was 31.42%; in data set [10] it was “Non-Toxic”. Moreover, in data set [4], the inhibition is 28%. Besides, the half-inhibitory concentration (IC50) was determined as 1370 nM in [5] and 15 nM in data set [11]. For the same molecule, the inhibition entry in [6] was “Active”. The outcome in [9] was Active.
